Read-outs that look alike come from different tables or passages of the source.
Legend:
Hep3B = test: MTT cytotoxicity assay; format: cell-based, human; settings: for IC50: Homo sapiens, 48 h, mean ± SD; for effect of inhibitor on the reduction of cell viability by daphnegiravone D: pretreated with 10 μM inhibitor 1 h, then 2 μM daphnegiravone D 48 h
Experimental: (§1) HepG2 and Hep3B (human hepatoma cells), Bcap37 and MCF-7 (human breast cancer cells), TE-1 (human esophageal cancer cells), A549 (human lung carcinoma cells), U251 and U87 (human glioma cells), were cultured in Dulbecco’s modified Eagle’s medium (DMEM) supplemented with 10% fetal bovine serum (FBS) and 1% penicillin/streptomycin (10000 U/mL penicillin, 10000 μg/ml streptomycin). SH-SY5Y (human neuroblastoma cells), LO2 (human normal liver cell) were grown in RPMI 1640 containing 10% FBS and 100 µg/ml penicillin, 100 µg/ml streptomycin. HepG2, Hep3B, MCF-7, TE-1, A549, U87, U251 and SHSY5Y cells were obtained from the American Type Culture Collection (Manassas, VA, USA). Bcap37 and LO2 cells were purchased from the Cell Bank of Chinese Academy of Sciences (Shanghai, China). All cells were incubated in a humidified atmosphere containing 5% CO2 at 37 °C.
(§2) Cells seeded in 96-well plates with 5 × 10^3 cells/well were adhered overnight and incubated with vehicle control (DMSO) or diverse concentrations of compounds for 48 h. After treatment, 20 μL of MTT (5 mg/mL) was added to each well and incubated for another 4 h at 37 °C. Then, 150 μL of DMSO/well was appended after removed the supernatant to dissolve the formed purple formazan crystals and the color absorbance was measured at 490 nm using a microplate reader (Molecular Devices, Thermo, CA, USA). The inhibition rate (%) was calculated as (A490(control) − A490(drug groups))/(A490(control) − A490(blank)) × 100 and the value of IC50 (the concentration that caused 50% inhibition of cell viability) was determined using SPSS 20.0. This experiment was measured in triplicate, independently.

HepG2 = test: MTT cytotoxicity assay; format: cell-based, human; settings: for IC50: Homo sapiens, HepG2, MTT, 48 h, mean ± SD; for effect of inhibitor on the reduction of cell viability by daphnegiravone D: HepG2, MTT, pretreated with 10 μM inhibitor 1 h, then 10 μM daphnegiravone D 48 h
Experimental: as §1, §2

A549 = test: MTT cytotoxicity assay; format: cell-based; settings: Homo sapiens, 48 h, mean ± SD
Experimental: as §1, §2

Bcap37 = test: MTT cytotoxicity assay; format: cell-based; settings: Homo sapiens, 48 h, mean ± SD
Experimental: as §1, §2

MCF-7 = test: MTT cytotoxicity assay; format: cell-based; settings: Homo sapiens, MCF7, 48 h, mean ± SD
Experimental: as §1, §2

SH-SY5Y = test: MTT cytotoxicity assay; format: cell-based; settings: Homo sapiens, 48 h, mean ± SD
Experimental: as §1, §2

TE-1 = test: MTT cytotoxicity assay; format: cell-based; settings: Homo sapiens, 48 h, mean ± SD
Experimental: as §1, §2

U251 = test: MTT cytotoxicity assay; format: cell-based; settings: Homo sapiens, U-251, 48 h, mean ± SD
Experimental: as §1, §2

U87 = test: MTT cytotoxicity assay; format: cell-based; settings: Homo sapiens, U-87 MG, 48 h, mean ± SD
Experimental: as §1, §2

LO2 = test: MTT cytotoxicity assay, normal hepatic cells; format: cell-based; settings: Homo sapiens, L02, 48 h, mean ± SD
Experimental: as §1, §2

[1] = tested on: nine human cancer cell lines and one normal hepatic cell line; test: MTT cytotoxicity assay, summary over the cell line panel; format: cell-based
Experimental: as §1, §2

HepG2 cells = tested on: HepG2 cells; set-up: method as in PMID 25446044; settings: cited from earlier work
[2] = most cancer cell lines, read-out: IC50 values against most cancer cell lines
[3] = most cell lines, read-out: IC50 values against most cell lines

| Compound | IC50 (Hep3B) | IC50 (HepG2) | IC50 (A549) | IC50 (Bcap37) | IC50 (MCF-7) | IC50 (SH-SY5Y) | IC50 (TE-1) | IC50 (U251) | IC50 (U87) | IC50 (LO2) | IC50 [1, 2] | IC50 [1, 3] | effect of inhibitor on the reduction of cell viability by daphnegiravone D (Hep3B) | effect of inhibitor on the reduction of cell viability by daphnegiravone D (HepG2) | inhibitory effect on HepG2 cells (HepG2 cells) |
| --- | --- | --- | --- | --- | --- | --- | --- | --- | --- | --- | --- | --- | --- | --- | --- |
| COc1c(-c2ccc(O)c(O)c2)oc2c(CC=C(C)C)c(O)c(CC=C(C)C)c(O)c2c1=O [Compound 2, broussoflavonol B] | 14.2 ± 1.56 µM | 26.1 ± 1.89 µM | 15 ± 1.21 µM | 42.4 ± 4.83 µM | 19.2 ± 1.76 µM | 13.5 ± 0.95 µM | 20 ± 2.3 µM | 19.8 ± 1.53 µM | 20.3 ± 2.08 µM | 22.4 ± 2.63 µM | ~20 µM | – | – | – | – |
| CC(C)=CCc1c(-c2ccc(O)cc2O)oc2c3c(cc(O)c2c1=O)OC(C)(C)C=C3 [Compound 3, morusin] | 14.2 ± 1.87 µM | 9.76 ± 0.94 µM | 23.9 ± 1.97 µM | 31 ± 2.34 µM | 13.5 ± 2.51 µM | 45.4 ± 3.24 µM | 22.8 ± 1.79 µM | 17.1 ± 2.22 µM | 23.4 ± 2.79 µM | 28.2 ± 3.14 µM | ~20 µM | – | – | – | – |
| COc1c(-c2cc(O)c3c(c2)C=CC(C)(C)O3)oc2c(CC=C(C)C)c(O)cc(O)c2c1=O [Compound 4, daphnegiravone A] | > 100 µM | 36.7 ± 2.21 µM | 66.8 ± 4.3 µM | > 100 µM | > 100 µM | 74.4 ± 4.87 µM | > 100 µM | > 100 µM | 71 ± 4.36 µM | > 100 µM | – | > 50 µM | – | – | – |
| CC(C)=CCc1cc([C@@H]2CC(=O)c3ccc(O)cc3O2)c2c(c1O)OC(C)(C)CC2 [Compound 5, daphnegiravone C] | 55.4 ± 3.97 µM | > 100 µM | 20 ± 1.31 µM | > 100 µM | > 100 µM | 54.8 ± 3.72 µM | > 100 µM | > 100 µM | 49.9 ± 3.87 µM | > 100 µM | – | > 50 µM | – | – | – |
| O=c1[nH]cc(F)c(=O)[nH]1 [Compound 5FU, 5-Fluorouracil, reference compound] | 10.4 ± 1.44 µM | 47.1 ± 3.68 µM | 31.9 ± 2.74 µM | 44.1 ± 3.82 µM | 42.3 ± 3.03 µM | 18.6 ± 1.38 µM | 26.7 ± 2.01 µM | 42.6 ± 3.49 µM | 20.2 ± 1.98 µM | 31.9 ± 3.78 µM | – | – | – | – | – |
| C[S+]([O-])c1ccc(-c2nc(-c3ccncc3)c(-c3ccc(F)cc3)[nH]2)cc1 (centres unmarked) [SB203580, reference compound] | – | – | – | – | – | – | – | – | – | – | – | – | abolished | abolished | – |
| Oc1c2ccccc2c2c3c(cccc13)N=N2 [SP600125, reference compound] | – | – | – | – | – | – | – | – | – | – | – | – | exacerbated | exacerbated | – |
| Kurzphenol C | – | – | – | – | – | – | – | – | – | – | – | – | – | – | weak inhibitory effect |

From article PMC5515844, “A new Prenylated Flavonoid induces G0/G1 arrest and apoptosis through p38/JNK MAPK pathways in Human Hepatocellular Carcinoma cells” (Scientific Reports, 2017)
